According to publication PMC10785772 (Science translational medicine, 2023):
In brackets after ≈: the same amount, converted by molar mass. Where two headings read alike, the source gives them in different places.

System: E. coli strain NDM-1 (ATCC:BAA-2471)
Test: MIC against multidrug-resistant sepsis-model strain
Type: cell-based

MIC (Escherichia coli, BAA2471) | Compound | MIC
– | colistin | 2.5 µg/mL
32 µg/mL (≈ 107 µM) | C[C@@H](O)[C@H]1C(=O)N2C(C(=O)O)=C(SCCN=CN)C[C@H]12 [imipenem] | –
> 32 µg/mL | O=C(O)c1cn(C2CC2)c2cc(N3CCNCC3)c(F)cc2c1=O [ciprofloxacin] | –
